pIC50: −log10 of the molar value.
What was measured:
[1] = target: T1, human sodium channels Nav 1.8 (Homo sapiens, UniProt Q9Y5Y9); assay: Automated whole-cell voltage-clamp (ScreenPatch 384P) sodium current block, Nav 1.8; type: cell-based; conditions: CHO cells stably expressing human Nav 1.8; inactivation step -40 mV for 8 seconds, test step 10 mV (TP1A); exposure at least five minutes; room temperature; mean if two or more assays; read-out: Nav1.8 IC50
T1 construct: expressed in transfected cells
T1 sequence (Q9Y5Y9 whole entry): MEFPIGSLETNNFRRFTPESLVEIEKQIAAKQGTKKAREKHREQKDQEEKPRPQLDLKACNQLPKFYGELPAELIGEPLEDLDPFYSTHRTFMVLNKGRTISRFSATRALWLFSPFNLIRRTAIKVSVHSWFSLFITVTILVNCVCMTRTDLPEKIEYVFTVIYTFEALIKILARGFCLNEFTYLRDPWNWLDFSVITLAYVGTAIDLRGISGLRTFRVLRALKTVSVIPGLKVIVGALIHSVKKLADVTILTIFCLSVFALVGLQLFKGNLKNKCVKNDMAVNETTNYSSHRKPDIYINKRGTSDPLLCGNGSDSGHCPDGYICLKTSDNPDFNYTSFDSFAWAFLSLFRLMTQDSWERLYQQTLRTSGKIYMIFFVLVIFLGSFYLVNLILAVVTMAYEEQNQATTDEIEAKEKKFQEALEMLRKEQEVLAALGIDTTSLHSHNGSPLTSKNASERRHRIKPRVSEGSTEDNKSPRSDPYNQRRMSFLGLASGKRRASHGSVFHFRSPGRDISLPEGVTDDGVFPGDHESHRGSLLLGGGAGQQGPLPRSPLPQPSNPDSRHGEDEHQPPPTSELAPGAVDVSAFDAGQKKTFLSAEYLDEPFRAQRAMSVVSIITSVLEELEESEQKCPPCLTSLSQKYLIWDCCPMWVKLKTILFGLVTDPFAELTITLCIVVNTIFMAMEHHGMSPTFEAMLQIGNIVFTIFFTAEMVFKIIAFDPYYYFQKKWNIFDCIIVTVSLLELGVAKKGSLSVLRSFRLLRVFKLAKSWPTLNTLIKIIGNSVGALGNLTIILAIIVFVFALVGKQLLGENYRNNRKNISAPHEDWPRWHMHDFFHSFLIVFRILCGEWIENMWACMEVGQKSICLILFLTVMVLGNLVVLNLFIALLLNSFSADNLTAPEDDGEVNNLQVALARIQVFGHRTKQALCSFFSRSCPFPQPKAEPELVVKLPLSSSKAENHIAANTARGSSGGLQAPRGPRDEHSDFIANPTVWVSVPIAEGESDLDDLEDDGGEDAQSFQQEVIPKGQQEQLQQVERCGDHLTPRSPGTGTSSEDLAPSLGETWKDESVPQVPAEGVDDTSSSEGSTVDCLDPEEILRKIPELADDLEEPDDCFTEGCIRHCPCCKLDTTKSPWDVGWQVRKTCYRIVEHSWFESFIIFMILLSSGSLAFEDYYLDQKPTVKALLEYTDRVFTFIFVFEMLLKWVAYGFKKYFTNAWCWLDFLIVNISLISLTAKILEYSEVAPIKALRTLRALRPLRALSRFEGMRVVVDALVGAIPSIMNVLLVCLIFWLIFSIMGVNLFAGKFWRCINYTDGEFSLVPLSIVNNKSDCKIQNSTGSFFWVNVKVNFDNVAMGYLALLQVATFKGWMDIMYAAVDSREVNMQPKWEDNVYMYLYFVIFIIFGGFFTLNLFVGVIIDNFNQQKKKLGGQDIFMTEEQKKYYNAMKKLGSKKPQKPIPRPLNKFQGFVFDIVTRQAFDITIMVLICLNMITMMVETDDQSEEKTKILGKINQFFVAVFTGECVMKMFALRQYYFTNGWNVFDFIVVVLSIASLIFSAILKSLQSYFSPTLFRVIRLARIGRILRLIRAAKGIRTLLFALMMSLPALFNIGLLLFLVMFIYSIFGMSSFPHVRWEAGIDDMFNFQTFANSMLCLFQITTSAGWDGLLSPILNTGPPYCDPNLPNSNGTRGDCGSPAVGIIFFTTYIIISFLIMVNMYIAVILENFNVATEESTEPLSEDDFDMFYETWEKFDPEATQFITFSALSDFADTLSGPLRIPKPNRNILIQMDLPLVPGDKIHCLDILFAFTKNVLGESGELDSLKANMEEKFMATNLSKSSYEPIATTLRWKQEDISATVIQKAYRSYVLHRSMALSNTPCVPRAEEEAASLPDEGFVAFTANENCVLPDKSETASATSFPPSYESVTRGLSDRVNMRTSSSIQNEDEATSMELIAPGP
Protocol: (§1) Biological assays were performed on Chinese hamster ovary (CHO) cells that express human sodium channels Nav 1.8 or Nav 1.7 in a stable manner.
(§2) The experimental protocol voltage-clamp using the whole cell configuration was established on the automated ScreenPatch® 384P platform (SP384PE, Nanion Technologies, Livingston, NJ) and the results were recorded with a Nanion 384-well Patch Clamp chip (NPC) (Nanion Technologies, Livingston, NJ).
(§3) Formula I compounds were diluted in eight concentrations in the extracellular solution composed of saline saline solution, buffered with HEPES (mM): NaCl, 137; KCl, 4; CaCl2, 3,8; MgCl2, 1; HEPES, 10; Glucose, 10; pH 7.4. The […], 50; CsF, 90; MgCl2, 5; EGTA, 5; HEPES, 10; pH 7.2. The duration of exposure of each compound with cells expressing Nav 1.7 or Nav 1.8 was at least five minutes and the assays were performed at room temperature.
(§4) The measurements of the sodium currents of Nav 1.8 and Nav 1.7 were obtained using the voltage protocol described below.
(§5) A holding voltage of -100 mV was established followed by an inactivation voltage step at -40 mV for 8 seconds, followed by a step of -100 mV for 20 ms, followed by a 20 ms step for 10 mV for Nav 1.8 or 0 mV for Nav 1.7 (TP1A) before returning to the holding voltage of -100 mV.
(§6) The protocol was repeated at a frequency of 0.05 Hz and the amplitude of the current was quantified throughout the recording of the TP1A phase. The variation in the amplitude of the peak current was evaluated according to the formula described below, after exposing the cells expressing the channels to each concentration of the different compounds: % Block = (1−(ITP1A,molecule/ITP1A,basal)×100%, [formula] wherein ITP1A,basal and ITP1A,molecule represent the peaks of sodium current input into TP1A before exposure to the compound and in the presence of the compound, respectively.
(§7) Data were obtained by nonlinear regression (nonlinear least squares) with XLfit for Excel (Microsoft, Redmond, WA).
(§8) The compounds were tested in at least one assay to obtain the value of CI50. For compounds that were tested in two or more assays, the results are described as the mean of the CI50 values.

[2] = target: T2, human sodium channels Nav 1.7 (Homo sapiens, UniProt Q15858); assay: Automated whole-cell voltage-clamp (ScreenPatch 384P) sodium current block, Nav 1.7; type: cell-based; conditions: CHO cells stably expressing human Nav 1.7; inactivation step -40 mV for 8 seconds, test step 0 mV (TP1A); exposure at least five minutes; room temperature; mean if two or more assays; read-out: Nav1.7 IC50
T2 construct: expressed in transfected cells
T2 sequence (Q15858 whole entry): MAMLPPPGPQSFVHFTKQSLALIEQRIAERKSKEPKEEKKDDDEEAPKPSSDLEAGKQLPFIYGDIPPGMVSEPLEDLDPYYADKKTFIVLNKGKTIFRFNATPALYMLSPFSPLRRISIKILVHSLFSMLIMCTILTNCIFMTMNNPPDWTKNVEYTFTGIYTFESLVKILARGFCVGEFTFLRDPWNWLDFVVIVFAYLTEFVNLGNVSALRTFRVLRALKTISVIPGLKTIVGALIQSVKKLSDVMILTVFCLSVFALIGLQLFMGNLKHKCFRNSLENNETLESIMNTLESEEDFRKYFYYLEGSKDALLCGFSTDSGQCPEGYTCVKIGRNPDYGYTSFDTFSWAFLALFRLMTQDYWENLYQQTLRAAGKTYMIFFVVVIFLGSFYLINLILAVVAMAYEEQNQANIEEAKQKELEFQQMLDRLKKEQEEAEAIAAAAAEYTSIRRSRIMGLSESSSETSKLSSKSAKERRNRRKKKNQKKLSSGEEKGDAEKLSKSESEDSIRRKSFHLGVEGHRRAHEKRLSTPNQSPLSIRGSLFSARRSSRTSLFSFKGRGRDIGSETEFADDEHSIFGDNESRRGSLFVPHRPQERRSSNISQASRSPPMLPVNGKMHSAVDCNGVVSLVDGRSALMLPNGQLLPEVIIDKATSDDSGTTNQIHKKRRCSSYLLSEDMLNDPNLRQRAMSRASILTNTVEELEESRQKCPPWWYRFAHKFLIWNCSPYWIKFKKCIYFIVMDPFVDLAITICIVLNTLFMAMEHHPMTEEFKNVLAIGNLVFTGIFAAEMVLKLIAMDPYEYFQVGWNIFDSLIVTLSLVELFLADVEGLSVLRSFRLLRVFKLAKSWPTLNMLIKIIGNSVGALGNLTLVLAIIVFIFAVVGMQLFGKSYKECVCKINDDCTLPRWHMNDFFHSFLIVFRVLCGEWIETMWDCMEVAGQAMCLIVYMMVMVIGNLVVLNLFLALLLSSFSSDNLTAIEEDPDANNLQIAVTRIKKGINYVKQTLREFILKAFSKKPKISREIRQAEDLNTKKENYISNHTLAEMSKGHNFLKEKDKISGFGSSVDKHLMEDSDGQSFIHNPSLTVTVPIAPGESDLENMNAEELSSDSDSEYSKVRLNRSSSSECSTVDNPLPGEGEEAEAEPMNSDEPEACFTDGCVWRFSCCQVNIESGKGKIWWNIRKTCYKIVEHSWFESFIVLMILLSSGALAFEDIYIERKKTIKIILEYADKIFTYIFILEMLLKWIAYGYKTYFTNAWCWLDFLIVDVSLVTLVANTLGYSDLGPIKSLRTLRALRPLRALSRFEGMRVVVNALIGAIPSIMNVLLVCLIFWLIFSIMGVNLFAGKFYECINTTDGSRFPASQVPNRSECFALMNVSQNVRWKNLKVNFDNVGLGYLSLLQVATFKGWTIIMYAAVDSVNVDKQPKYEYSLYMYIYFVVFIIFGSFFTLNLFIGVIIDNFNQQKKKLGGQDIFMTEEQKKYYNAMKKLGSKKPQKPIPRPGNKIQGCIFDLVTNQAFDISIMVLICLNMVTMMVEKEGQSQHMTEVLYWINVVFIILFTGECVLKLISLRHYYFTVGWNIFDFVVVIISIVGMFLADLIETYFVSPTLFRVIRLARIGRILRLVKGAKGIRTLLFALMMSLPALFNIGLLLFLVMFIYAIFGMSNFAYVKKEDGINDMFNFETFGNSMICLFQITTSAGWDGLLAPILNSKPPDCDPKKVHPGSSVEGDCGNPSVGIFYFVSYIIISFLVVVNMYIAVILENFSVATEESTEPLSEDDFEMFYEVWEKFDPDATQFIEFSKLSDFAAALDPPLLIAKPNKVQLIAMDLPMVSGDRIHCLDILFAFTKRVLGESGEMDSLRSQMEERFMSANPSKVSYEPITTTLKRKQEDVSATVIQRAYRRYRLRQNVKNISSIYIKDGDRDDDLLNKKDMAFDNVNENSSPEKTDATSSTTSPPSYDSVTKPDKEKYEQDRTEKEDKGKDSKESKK
Protocol: as §1, §2, §3, §4, §5, §6, §7, §8

| SMILES | pIC50 [1] | pIC50 [2] |
| --- | --- | --- |
| CCOc1ccc(-c2cncc(C(=O)NOCc3cccc(O)c3)n2)cc1 [Compound 7, 6-(4-ethoxyphenyl)-N-((3-hydroxybenzyl)oxy)pyrazine-2-carboxamide] | < 6.00 | < 6.00 |
| CCOc1ccc(-c2cncc(C(=O)NOCc3ncoc3C)n2)cn1 [Compound 57, 6-(6-ethoxypyridine-3-yl)-N-((5-methyloxazole-4-yl)methoxy)pyrazine-2-carboxamide] | < 6.00 | < 6.00 |
| COc1ccc(F)c(CONC(=O)c2nccc(-c3ccc(OC(F)F)nc3)n2)c1 [Compound 119] | > 6.30 | < 6.00 |
| CCOc1ccc(-c2cncc(C(=O)NOCc3[nH]cnc3C)n2)cn1 [Compound 59, 6-(6-ethoxypyridine-3-yl)-N-((4-methyl-1H-imidazole-5-yl)methoxy)pyrazine-2-carboxamide] | < 6.00 | < 6.00 |
| CCOc1ccc(-c2cncc(C(=O)NOCc3ccccc3O)n2)cc1 [Compound 6, 6-(4-ethoxyphenyl)-N-((2-hydroxybenzyl)oxy)pyrazine-2-carboxamide] | < 6.00 | < 6.00 |
| O=C(NOCc1ccccn1)c1cncc(-c2ccc(OC(F)(F)F)nc2)n1 [Compound 73] | > 6.30 | < 6.00 |
| CCOc1ccc(-c2cnc(F)c(C(=O)NOCc3cc(OC)ccc3F)n2)cn1 [Compound 105] | 6.00 to 6.30 | < 6.00 |
| COc1cnc(F)c(CONC(=O)c2cccc(-c3ccc(OC(F)F)nc3)n2)c1 [Compound 114] | 6.00 to 6.30 | < 6.00 |
| COc1ccc(F)c(CONC(=O)c2cncc(-c3ccc(OCCC4CNC4)cc3)n2)c1 [Compound 24, 6-(4-(2-(azetidine-3-yl)ethoxy)phenyl)-N-((2-fluoro-5-methoxybenzyl)oxy)pyrazine-2-carboxamide] | < 6.00 | < 6.00 |
| O=C(NOCc1ccncc1)c1cncc(-c2ccc(OC(F)(F)F)nc2)n1 [Compound 75] | > 6.30 | > 6.30 |
| CCOc1ccc(-c2cncc(C(=O)NOCc3ccnn3C(C)C)n2)cn1 [Compound 64] | < 6.00 | < 6.00 |
| CCOc1ccc(-c2cncc(C(=O)NOCc3ccccc3F)n2)cc1 [Compound 4, 6-(4-ethoxyphenyl)-N-((2-fluorobenzyl)oxy)pyrazine-2-carboxamide] | > 6.30 | 6.00 to 6.30 |
| COc1cc(CONC(=O)c2cncc(-c3ccc(OC(F)F)nc3)n2)c(F)cn1 [Compound 79, 6-(6-(difluoromethoxy)pyridine-3-yl)-N-((5-fluoro-2-methoxypyridine-4-yl)methoxy)pyrazine-2-carboxamide] | < 6.00 | < 6.00 |
| CN(C)c1cnc(F)c(CONC(=O)c2cncc(-c3ccc(OC(F)F)nc3)n2)c1 [Compound 80] | 6.00 to 6.30 | < 6.00 |
| CCOc1ccc(-c2cncc(C(=O)NOCc3cc(OC)ccc3F)n2)c(OC)c1 [Compound 87] | > 6.30 | < 6.00 |
| CCOc1ccc(-c2nc(C(=O)NOCc3cc(OC)ccc3F)cnc2O)cn1 [Compound 100] | > 6.30 | < 6.00 |
| COc1ccc(-c2cncc(C(=O)NOCc3cc(OC)ccc3F)n2)cc1 [Compound 2, N-((2-fluoro-5-methoxybenzyl)oxy)-6-(4-methoxyphenyl)pyrazine-2-carboxamide] | > 6.30 | < 6.00 |
| COc1ccc(F)c(CONC(=O)c2cncc(-c3ccc([S+](C)[O-])cc3)n2)c1 (stereo not drawn) [Compound 29, N-((2-fluoro-5-methoxybenzyl)oxy)-6-(4-(methylsulfinyl)phenyl)pyrazine-2-carboxamide] | < 6.00 | < 6.00 |
| CCOc1ccc(-c2cncc(C(=O)NOCc3nccn3CC)n2)cn1 [Compound 61, 6-(6-ethoxypyridine-3-yl)-N-((1-ethyl-1H-imidazole-2-yl)methoxy)pyrazine-2-carboxamide] | > 6.30 | < 6.00 |
| CCOc1ccc(-c2cncc(C(=O)NOCc3cc(OC)ccc3F)n2)c(OC)n1 [Compound 94] | < 6.00 | < 6.00 |
| COc1ccc(F)c(CONC(=O)c2ccnc(-c3ccc(OC(F)F)nc3)n2)c1 [Compound 118] | > 6.30 | < 6.00 |
| CCOc1ccc(-c2cccc(C(=O)NOCc3cc(OC)ccc3F)n2)cn1 [Compound 106] | < 6.00 | < 6.00 |

Further lines, results first:

| pIC50 [1] | pIC50 [2] | SMILES |
| --- | --- | --- |
| > 6.30 | < 6.00 | CCOc1ccc(-c2cncc(C(=O)NOCc3cc(OC)ncc3F)n2)cc1 [Compound 13, 6-(4-ethoxyphenyl)-N-((5-fluoro-2-methoxypyridine-4-yl)methoxy)pyrazine-2-carboxamide] |
| < 6.00 | < 6.00 | COc1ccc(F)c(CONC(=O)c2cncc(-c3ccc(O)cc3)n2)c1 [Compound 1, N-((2-fluoro-5-methoxybenzyl)oxy)-6-(4-hydroxyphenyl)pyrazine-2-carboxamide] |
| < 6.00 | < 6.00 | CCOc1ccc(-c2cncc(C(=O)NOCc3cc(OC)ccc3O)n2)cn1 [Compound 44, 6-(6-ethoxypyridine-3-yl)-N-((2-hydroxy-5-methoxybenzyl)oxy)pyrazine-2-carboxamide] |
| > 6.30 | < 6.00 | CCOc1ccc(-c2cncc(C(=O)NOCc3cc(N(C)C)cnc3F)n2)cn1 [Compound 41, N-((5-(dimethylamino)-2-fluoropyridine-3-yl)methoxy)-6-(6-ethoxypyridine-3-yl)pyrazine-2-carboxamide] |
| < 6.00 | < 6.00 | CCOc1ccc(-c2cncc(C(=O)NOCc3cc(O)ccc3F)n2)cn1 [Compound 43, 6-(6-ethoxypyridine-3-yl)-N-((2-fluoro-5-hydroxybenzyl)oxy)pyrazine-2-carboxamide] |
| < 6.00 | < 6.00 | CCOc1ccc(-c2cncc(C(=O)NOCc3ocnc3C)n2)cn1 [Compound 65, 6-(6-ethoxypyridine-3-yl)-N-((4-methyloxazole-5-yl)methoxy)pyrazine-2-carboxamide] |
| < 6.00 | < 6.00 | CCOc1ccc(-c2cncc(C(=O)NOCc3cc(OC)ccc3C)n2)cn1 [Compound 47, 6-(6-ethoxypyridine-3-yl)-N-((5-methoxy-2-methylbenzyl)oxy)pyrazine-2-carboxamide] |
| > 6.30 | < 6.00 | CCOc1ccc(-c2cncc(C(=O)NOCc3cc(OC)ncc3F)n2)cn1 [Compound 39, 6-(6-ethoxypyridine-3-yl)-N-((5-fluoro-2-methoxypyridine-4-yl)methoxy)pyrazine-2-carboxamide] |
| < 6.00 | < 6.00 | [2H]C([2H])([2H])COc1ccc(-c2cncc(C(=O)NOCc3cc(OC([2H])([2H])[2H])ccc3F)n2)cn1 [Compound 52, 6-(6-(ethoxy-2,2,2-d3)pyridine-3-yl)-N-((2-fluoro-5-(methoxy-d3)benzyl)oxy)pyrazine-2-carboxamide] |
| > 6.30 | < 6.00 | CCOc1ccc(-c2cncc(C(=O)NOCc3cc(OC)cnc3F)n2)cc1 [Compound 12, 6-(4-ethoxyphenyl)-N-((2-fluoro-5-methoxypyridine-3-yl)methoxy)pyrazine-2-carboxamide] |
| < 6.00 | < 6.00 | CCOc1ccc(-c2cncc(C(=O)NOCc3cc(OC)ccc3C)n2)cc1 [Compound 19, 6-(4-ethoxyphenyl)-N-((5-methoxy-2-methylbenzyl)oxy)pyrazine-2-carboxamide] |
| < 6.00 | < 6.00 | CCOc1ccc(-c2cncc(C(=O)NOCc3occc3OC)n2)cn1 [Compound 66, 6-(6-ethoxypyridine-3-yl)-N-((3-methoxyfuran-2-yl)methoxy)pyrazine-2-carboxamide] |
| > 6.30 | < 6.00 | CCOc1ccc(-c2cncc(C(=O)NOCc3cccc(OC)c3)n2)cn1 [Compound 33, 6-(6-ethoxypyridine-3-yl)-N-((3-methoxybenzyl)oxy)pyrazine-2-carboxamide] |
| < 6.00 | < 6.00 | [2H]C([2H])(C)Oc1ccc(-c2cncc(C(=O)NOCc3cc(OC)ccc3F)n2)cn1 [Compound 50, 6-(6-(ethoxy-1,1-d2)pyridine-3-yl)-N-((2-fluoro-5-methoxybenzyl)oxy)pyrazine-2-carboxamide] |

Reference: patent EP4660184A1 (Eurofarma Laboratórios S.A., priority 2023, dated 2024)
